Assay results: ChEMBL document CHEMBL4024727, “Synthesis and antimycobacterial screening of new thiazolyl-oxazole derivatives” (Eur J Med Chem, 2017)

Assays:
Assay type in all cases: functional
[1] = system: Bacillus subtilis; assay: Growth inhibition of Bacillus subtilis NCIM 2162 at 30 ug/ml measured after 12 hrs relative to control; conditions: NCIM 2162, 12 h, read-out: GI
[2] = system: Escherichia coli; assay: Antibacterial activity against Escherichia coli NCIM 2576 measured after 8 hrs; conditions: NCIM 2576, 8 h
[3] = system: Mycobacterium tuberculosis; assay: Growth inhibition of Mycobacterium bovis BCG ATCC 35743 at 30 ug/ml by nitrate reductase based two-fold dilution assay relative to control; conditions: BCG str. ATCC 35743, read-out: GI
[4] = system: Escherichia coli; assay: Growth inhibition of Escherichia coli NCIM 2576 at 10 ug/ml measured after 8 hrs relative to control; conditions: NCIM 2576, 8 h, read-out: GI
[5] = system: Mycobacterium tuberculosis; assay: Growth inhibition of Mycobacterium tuberculosis H37Ra ATCC 25177 at 30 ug/ml by XTT dye based two-fold dilution method relative to control; conditions: read-out: GI
[6] = system: Bacillus subtilis; assay: Growth inhibition of Bacillus subtilis NCIM 2162 at 1 ug/ml measured after 12 hrs relative to control; conditions: NCIM 2162, 12 h, read-out: GI
[7] = system: Mycobacterium tuberculosis; assay: Antitubercular activity against Mycobacterium bovis BCG ATCC 35743 dormant stage by nitrate reductase based two-fold dilution assay; conditions: BCG str. ATCC 35743
[8] = system: Escherichia coli; assay: Growth inhibition of Escherichia coli NCIM 2576 at 1 ug/ml measured after 8 hrs relative to control; conditions: NCIM 2576, 8 h, read-out: GI
[9] = system: Pseudomonas fluorescens; assay: Antibacterial activity against Pseudomonas fluorescens NCIM 2059 measured after 8 hrs; conditions: NCIM 2059, 8 h
[10] = system: Bacillus subtilis; assay: Growth inhibition of Bacillus subtilis NCIM 2162 at 10 ug/ml measured after 12 hrs relative to control; conditions: NCIM 2162, 12 h, read-out: GI
[11] = system: Staphylococcus aureus; assay: Growth inhibition of Staphylococcus aureus NCIM 2602 at 1 ug/ml measured after 12 hrs relative to control; conditions: NCIM 2602, 12 h, read-out: GI
[12] = system: Mycobacterium tuberculosis; assay: Growth inhibition of Mycobacterium bovis BCG ATCC 35743 at 1 ug/ml by nitrate reductase based two-fold dilution assay relative to control; conditions: BCG str. ATCC 35743, read-out: GI
[13] = system: Escherichia coli; assay: Growth inhibition of Escherichia coli NCIM 2576 at 30 ug/ml measured after 8 hrs relative to control; conditions: NCIM 2576, 8 h, read-out: GI
[14] = system: Pseudomonas fluorescens; assay: Growth inhibition of Pseudomonas fluorescens NCIM 2059 at 30 ug/ml measured after 8 hrs relative to control; conditions: NCIM 2059, 8 h, read-out: GI
[15] = system: Mycobacterium tuberculosis; assay: Growth inhibition of Mycobacterium tuberculosis H37Ra ATCC 25177 at 3 ug/ml by XTT dye based two-fold dilution method relative to control; conditions: read-out: GI
[16] = system: Mycobacterium tuberculosis; assay: Antitubercular activity against Mycobacterium tuberculosis H37Ra ATCC 25177 dormant stage by XTT dye based two-fold dilution method
[17] = system: Bacillus subtilis; assay: Antibacterial activity against Bacillus subtilis NCIM 2162 measured after 12 hrs; conditions: NCIM 2162, 12 h
[18] = system: Staphylococcus aureus; assay: Growth inhibition of Staphylococcus aureus NCIM 2602 at 30 ug/ml measured after 12 hrs relative to control; conditions: NCIM 2602, 12 h, read-out: GI
[19] = system: Pseudomonas fluorescens; assay: Growth inhibition of Pseudomonas fluorescens NCIM 2059 at 1 ug/ml measured after 8 hrs relative to control; conditions: NCIM 2059, 8 h, read-out: GI
[20] = system: Staphylococcus aureus; assay: Antibacterial activity against Staphylococcus aureus NCIM 2602 measured after 12 hrs; conditions: NCIM 2602, 12 h
[21] = system: Pseudomonas fluorescens; assay: Growth inhibition of Pseudomonas fluorescens NCIM 2059 at 10 ug/ml measured after 8 hrs relative to control; conditions: NCIM 2059, 8 h, read-out: GI
[22] = system: Staphylococcus aureus; assay: Growth inhibition of Staphylococcus aureus NCIM 2602 at 10 ug/ml measured after 12 hrs relative to control; conditions: NCIM 2602, 12 h, read-out: GI
[23] = system: Mycobacterium tuberculosis; assay: Growth inhibition of Mycobacterium bovis BCG ATCC 35743 at 10 ug/ml by nitrate reductase based two-fold dilution assay relative to control; conditions: BCG str. ATCC 35743, read-out: GI
[24] = system: Mycobacterium tuberculosis; assay: Growth inhibition of Mycobacterium tuberculosis H37Ra ATCC 25177 at 10 ug/ml by XTT dye based two-fold dilution method relative to control; conditions: read-out: GI

Compound	inhibition of growth at 30 µg/mL [1]	MIC [2]	inhibition of growth at 30 µg/mL [3]	inhibition of growth at 10 µg/mL [4]	inhibition of growth at 30 µg/mL [5]	inhibition of growth at 1 µg/mL [6]	IC50 [7]	MIC90 [7]	inhibition of growth at 1 µg/mL [8]	MIC [9]	inhibition of growth at 10 µg/mL [10]	inhibition of growth at 1 µg/mL [11]	inhibition of growth at 1 µg/mL [12]	inhibition of growth at 30 µg/mL [13]	inhibition of growth at 30 µg/mL [14]	inhibition of growth at 3 µg/mL [15]	IC50 [16]	MIC90 [16]	MIC [17]	inhibition of growth at 30 µg/mL [18]	also measured
Cc1nc(-c2ccccc2)oc1-c1csc(-c2ccc(Br)cc2)n1	88%	> 100 µM	39%	79.1%	33%	65%	> 100 µM	> 100 µM	67.7%	> 100 µM	74.3%	67.8%	31%	85.6%	85.2%	11%	> 100 µM	> 100 µM	> 100 µM	85.2%	inhibition of growth at 1 µg/mL [19]: 64.5%; MIC [20]: > 100 µM; inhibition of growth at 10 µg/mL [21]: 74.2%; inhibition of growth at 10 µg/mL [22]: 72.2%; inhibition of growth at 10 µg/mL [23]: 36%; inhibition of growth at 10 µg/mL [24]: 17%
Cc1nc(-c2ccccc2)oc1-c1csc(-c2ccc(Cl)cc2)n1	45.7%	> 100 µM	43%	25.3%	46%	14.9%	> 100 µM	> 100 µM	11.1%	> 100 µM	29.2%	12.8%	30%	48.9%	44.9%	38%	> 100 µM	> 100 µM	> 100 µM	48.9%	inhibition of growth at 1 µg/mL [19]: 10.5%; MIC [20]: > 100 µM; inhibition of growth at 10 µg/mL [21]: 23.7%; inhibition of growth at 10 µg/mL [22]: 22.3%; inhibition of growth at 10 µg/mL [23]: 41%; inhibition of growth at 10 µg/mL [24]: 45%
Cc1nc(-c2ccccc2)oc1-c1csc(-c2cccc(Cl)c2)n1	69.8%	> 100 µM	40%	51.8%	27%	24.8%	> 100 µM	> 100 µM	24.9%	> 100 µM	57.3%	20.5%	26%	68.2%	65.8%	12%	> 100 µM	> 100 µM	> 100 µM	69.4%	inhibition of growth at 1 µg/mL [19]: 23.5%; MIC [20]: > 100 µM; inhibition of growth at 10 µg/mL [21]: 56.2%; inhibition of growth at 10 µg/mL [22]: 55.6%; inhibition of growth at 10 µg/mL [23]: 26%; inhibition of growth at 10 µg/mL [24]: 14%
Cc1nc(-c2ccc(F)cc2)oc1-c1csc(Cc2ccc(Cl)cc2)n1	27.6%	> 100 µM	42%	16.1%	39%	9.95%	> 100 µM	> 100 µM	7.55%	> 100 µM	13.9%	5.76%	24%	21%	20.9%	9%	> 100 µM	> 100 µM	> 100 µM	21.1%	inhibition of growth at 1 µg/mL [19]: 4.37%; MIC [20]: > 100 µM; inhibition of growth at 10 µg/mL [21]: 20.1%; inhibition of growth at 10 µg/mL [22]: 14.1%; inhibition of growth at 10 µg/mL [23]: 32%; inhibition of growth at 10 µg/mL [24]: 25%
